Test results: publication PMC2843552 (Cancer research, 2010)

Assays:
JAK2 = assay: HTScan JAK2 Kinase Assay; type: biochemical, human; conditions: 5 µM; over a DMSO control; P<0.05
[1] = test system: P-STAT3 in MDA-MB-231 breast cancer cells; assay: Western blot of P-STAT3; conditions: 2.5 and 5 µM, 24 hours
[2] = test system: P-STAT3 in PANC-1 pancreatic cancer cells; assay: Western blot of P-STAT3; conditions: 2.5 and 5 µM, 24 hours
MDA-MB-231 cells [3] = assay: Soft agar colony formation assay; conditions: MDA-MB-231, soft agar, two weeks
MDA-MB-231 cells [4] = assay: Laminin-based cell invasion assay; conditions: 1 µM, 24 hours
WI-38 lung cells = assay: Apoptosis in normal cells; conditions: normal cell line
BdsMC bladder cells = assay: Apoptosis in normal cells; conditions: normal cell line
HMEC cells = assay: Western blot of cleaved caspase-3 in normal cells; conditions: concentrations as high as 10 µM; normal breast cells
HPDE cells = assay: Western blot of cleaved caspase-3 in normal cells; conditions: concentrations as high as 10 µM; normal pancreatic cells
[5] = test system: MDA-MB-231 breast cancer cell line; assay: Combinatorial effect with doxorubicin on cell viability; conditions: 100–400 nM doxorubicin with 5000 nM compound; p < 0.05 over either agent alone
[6] = test system: STAT3 transcriptional activity in MDA-MB-231 cells; assay: STAT3-dependent transcriptional luciferase assay; conditions: 24 hours of treatment
[7] = test system: STAT3 DNA-binding activity in MDA-MB-231 cells; assay: STAT3 DNA-binding activity in nuclear extracts; conditions: 24 hours treatment
[8] = test system: STAT3 DNA-binding activity in PANC-1 cells; assay: STAT3 DNA-binding activity in nuclear extracts; conditions: 24 hours treatment
[9] = test system: STAT1 DNA-binding activity in MDA-MB-231 cells; assay: STAT1 DNA-binding activity in nuclear extracts; conditions: 24 hours treatment

| Structure (SMILES) | reduction in JAK2 kinase activity (JAK2) | levels of P-STAT3 [1] | levels of P-STAT3 [2] | reduction of overall colony numbers over that of curcumin (MDA-MB-231 cells [3]) | invasive capacity (MDA-MB-231 cells [4]) | apoptosis (WI-38 lung cells) | apoptosis (BdsMC bladder cells) | caspase-3 cleavage (HMEC cells) | caspase-3 cleavage (HPDE cells) | combination effect with doxorubicin on cell viability [5] | luciferase activity [6] | STAT3 DNA-binding activity [7] | STAT3 DNA-binding activity [8] | STAT1 DNA-binding activity [9] |
| --- | --- | --- | --- | --- | --- | --- | --- | --- | --- | --- | --- | --- | --- | --- |
| COc1ccc(/C=C/C(=O)C(C)(C)C(=O)/C=C/c2ccc(OC)c(OC)c2)cc1OC [FLLL31] | approximately 60% | effectively reduced | effectively reduced | approximately 40% | substantially reduced | no evidence of apoptosis | no evidence of apoptosis | unable to induce caspase-3 cleavage | unable to induce caspase-3 cleavage | synergistic | reduced luciferase activity in a dose-dependent fashion | dropped sharply | dropped sharply | slightly enhanced |
| COc1cc(/C=C/C(=O)CC(=O)/C=C/c2ccc(O)c(OC)c2)ccc1O [curcumin, reference compound] | – | – | – | – | comparatively minimal impact | – | – | – | – | – | – | – | – | – |
